The EC50 is the concentration at which the effect is half-maximal. A low value points to greater potency.

Results on one molecule are retold here after PMC7729398, “Unravelling the intricate cooperativity of subunit gating in P2X2 ion channels” (Scientific Reports, 2020).

One experiment deals with T1, P2X2 receptor (Rattus norvegicus, UniProt P49653).
T1 construct: gene P2rx2; wild type rat P2X2 in HEK293 (Flp-In T-REx 293) cells
T1 sequence (P49653 1-472): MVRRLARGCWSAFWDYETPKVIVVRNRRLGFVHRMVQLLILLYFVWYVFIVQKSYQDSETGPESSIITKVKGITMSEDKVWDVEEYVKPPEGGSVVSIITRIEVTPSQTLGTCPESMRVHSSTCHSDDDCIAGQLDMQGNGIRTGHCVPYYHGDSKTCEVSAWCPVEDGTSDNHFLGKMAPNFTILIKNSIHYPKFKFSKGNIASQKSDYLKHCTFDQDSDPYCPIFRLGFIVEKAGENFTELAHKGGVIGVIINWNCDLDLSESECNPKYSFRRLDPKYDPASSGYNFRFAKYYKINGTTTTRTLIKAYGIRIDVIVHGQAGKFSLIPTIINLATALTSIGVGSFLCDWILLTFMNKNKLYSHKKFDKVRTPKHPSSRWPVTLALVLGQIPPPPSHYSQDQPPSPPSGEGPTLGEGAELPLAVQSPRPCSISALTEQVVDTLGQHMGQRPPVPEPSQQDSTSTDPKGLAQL
Description: whole-cell and single-channel (cell-attached) patch-clamp, fast ATP jumps, global kinetic fit. The format is cell-based.

A further experiment deals with T2, P2X2 receptor H319K (Rattus norvegicus, UniProt P49653, H319K).
T2 construct: gene P2rx2; rat P2X2 H319K in HEK293 (Flp-In T-REx 293) cells
T2 sequence (P49653 1-472 H319K): T1 sequence (P49653 1-472) with H319K
The experiment is described as above. The format is cell-based.

Substitutions are numbered along the chain they refer to.

Take `Nc1ncnc2c1ncn2[C@@H]1O[C@H](COP(=O)(O)OP(=O)(O)OP(=O)(O)O)[C@@H](O)[C@H]1O` [ATP]: the EC50 at P2X2 receptor is 1200 nM; at P2X2 receptor H319K it was ~ 30 nM.
